For experiment [1], the system named is Leukemia (SupB-15) cells. The experiment is described as follows: IC50 in cancer cell lines (Table 3), leukemia. It is filed as cell-based, human. The conditions noted are these: flow cytometry, Mean ± SEM, n ≥ 3. The protocol:
(§1) Having observed a suitable potency of some embodiments of the invention, including, at least with compounds 3-6, 14 in prostate cancer cell lines, other cancer cell lines were tested with these compounds. […] Compounds that were active in prostate cancer cell lines also killed BCR-Abl-positive leukemia cells with similar potency to FTY720.
(§2) Cell culture studies: Sup-B15 cells are maintained at 2-3 million/mL in RPMI 1640 (Mediatech) supplemented with 10% fetal calf serum (FCS, Sigma-Aldrich), 10 mM Hepes (Mediatech), 55 μM β-mercaptoethanol (Sigma-Aldrich), 2 mM L-glutamine (Mediatech), and antibiotics. All adherent cells are maintained at 70-80% confluence. Cell are cultured in the following media: PC3 & A549, Ham's F12K (Corning Cell Gro) supplemented with 10% FCS and antibiotics; DU145 cells, MEM (Corning Cell Gro) supplemented with 10% FCS, 1 mM sodium pyruvate (Mediatech), and antibiotics; SW620 & MDA-MB-231, DMEM (Corning Cell Gro) with 10% FCS, 1 mM sodium pyruvate (Mediatech), and antibiotics; Panc-1 cells, DMEM (Corning Cell Gro) supplemented with 10% FCS and antibiotics. All of the above cell lines are available from the ATCC.
(§3) Viability assays: Cell Titer Glo assays (Cell Titer Glo Luminescent Cell Viability Assay kit, cat #G7571, Promega Corporation) are performed in clear bottom 96-well black cell culture plates (cat #655090, Greiner Bio-One, NC, USA). After plating at 1,000 cells/well in volume of 100 μl, cells are left undisturbed for at least 24 h before drug addition. After 72 h, cells are prepared for analysis by adding 10 μl of 0.1% Triton-X100 in PBS with shaking for 1 min at room temperature (RT). Cell Titer-Glo cell lysis reagent (20 μl) is then added followed by 1 min of shaking and a 10 min incubation in the dark at RT. Luminescence is detected using an IVIS imaging system (IVIS Lumina II, Perkin Elmer, USA). […] IC50s are determined using GraphPad Prism (GraphPad Software, Inc, La Jolla, Calif.). SupB-15 viability was determined by flow cytometry. Cell Titer Glo assays were performed with the other cell lines.
(In general: In flow cytometry, cells or beads pass a laser one at a time.)

For experiment [2], the system named is Lung (A-549) cancer cell line. The experiment is described as follows: IC50 in cancer cell lines (Table 3), lung. It is filed as cell-based, human. The conditions noted are these: Mean ± SEM, n ≥ 3. On the procedure:
as §1, §2, §3

The nature of experiment [3]: Lymphocyte sequestration in mice. Format: in vivo, C57BL6 mice. As to conditions: 10 mg/kg intraperitoneally, blood after 12 h, compared to saline. The source says: In more exemplary embodiments, compounds 5 and 5-P were further examined for their ability to activate multiple S1P receptors in vivo. In particular, mouse heart rate and lymphocyte sequestration were examined. Mouse heart rate decreases causing bradycardia when S1P receptor 3 is activated while in humans this effect may be mediated by S1P receptor 1. In both mice and humans, lymphocytes are sequestered when the S1P receptor 1 is activated.
Lymphocyte sequestration: Female 8-24 week old C57BL6 mice are injected intraperitoneally with vehicle (0.9% saline or 20% acidified DMSO in 0.9% saline), 10 mg/kg FTY720, FTY720-phosphate, 5, or 5-P. After 12 h, blood is collected from the retro-orbital sinus under ketamine/xylazine anesthesia. 10 μL of whole blood is added to 190 μL of ACK red blood cell lysis buffer, incubated at room temperature for 3-5 minutes […], and the white blood cells recovered by centrifugation. Nucleated cells (Hoechst33342 positive) are counted using a hemocytometer to obtain the white blood cell count. Separately, 50 μL of whole blood is added to 1 mL of ACK red blood cell lysis buffer and incubated for 3-5 minutes at room temperature. Cells are washed with FACS wash (2% FCS in PBS with 0.05% NaN3) and red blood cell lysis repeated. Tubes are decanted and resuspended in 100 μL of FACS block (10% FCS in PBS with 0.05% NaN3) with directly conjugated antibodies recognizing B220, CD4, or CD8 (all from Biolegend, San Diego) for 30 min on ice. Cells are analyzed on a BD LSR II flow cytometer; the analysis is restricted to live cells (DAPI negative). These experiments are performed in accordance with all national or local guidelines and regulations and are approved by the UCI Institutional Animal Care and Use Committee.

Experiment [4] deals with DU145 prostate cancer cells. Put plainly: Cell Titer Glo proliferation assay in DU145. Format: cell-based, human. The conditions noted are these: Mean ± SEM, n ≥ 3, read-out: IC50 values in prostate cancer cell lines, DU145. The gist of the method:
(§4)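 Cells plated at 1,000 cells/well and left at least 24 h, then exposed to compound for 72 h. Permeabilised with 0.1% Triton-X100, lysed with Cell Titer-Glo reagent, luminescence read; IC50 from dose-response curves. PC3 grown in F12K with 10% FCS, DU145 in MEM with 10% FCS and pyruvate.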

Experiment [5] deals with PC3 prostate cancer cells. The experiment is described as follows: Cell Titer Glo proliferation assay in PC3. Format: cell-based, human. As to conditions: for IC50: Cell Titer Glo, 72 h, Mean ± SEM, n ≥ 3, read-out: IC50 values in prostate cancer cell lines, PC3; for activity in the prostate cancer cell proliferation assay (in words): PC3 and DU145, Cell Titer Glo. The essentials:
as §4
(In general: ATP-based viability assays read luminescence as a measure of living cells.)

The subject of experiment [6] is Pancreas (PANC-1) cancer cell line. The experiment is described as follows: IC50 in cancer cell lines (Table 3), pancreas. Format: cell-based, human. As to conditions: Mean ± SEM, n ≥ 3. On the procedure:
as §1, §2, §3

For experiment [7], the system named is Breast (MDA-MB-231) cancer cell line. Put plainly: IC50 in cancer cell lines (Table 3), breast. Format: cell-based, human. As to conditions: Mean ± SEM, n ≥ 3. On the procedure:
as §1, §2, §3

Experiment [8] relates to PC3 prostate cancer cells. The experiment is described as follows: Cell viability by vital dye exclusion and flow cytometry in PC3. It is filed as cell-based, human. The conditions noted are these: vital dye exclusion (DAPI) and flow cytometry, 72 h. The protocol:
Thus, to determine whether analogues in accordance with embodiments of the invention are cytotoxic, studies were conducted using vital dye exclusion and flow cytometry (Table 2).
as §3

Experiment [9] has as its system Colon (SW-620) cancer cell line. Put plainly: IC50 in cancer cell lines (Table 3), colon. It is filed as cell-based, human. As to conditions: Mean ± SEM, n ≥ 3. The protocol:
as §1, §2, §3

Structures are written as SMILES. Read-outs that look alike come from different tables or passages of the source.

Broadly, the IC50 is the point on the concentration scale where inhibition reaches its midpoint. Take `CCCCCCCCc1ccc([C@H]2CCN[C@@H]2CO)cc1.Cl` [Compound 5, (2S,3R)-2-(hydroxymethyl)-3-(4-octylphenyl)Pyrrolidinium chloride]: the IC50 in experiment [1] (Homo sapiens, SUP-B15) amounted to 5.1 ± 0.9 µM; in experiment [2] (Homo sapiens, A549), 8.9 ± 1.4 µM; in [4] (Homo sapiens, DU-145, 72 h), 3.8 ± 0.4 µM; in experiment [5] (Homo sapiens) it was 4 ± 0.7 µM; in experiment [6] (Homo sapiens, PANC-1), 3.3 ± 0.5 µM; in [7] (Homo sapiens, MDA-MB-231) it was 2.1 ± 0.2 µM. Moreover, the IC50 in experiment [8] (Homo sapiens) is 5.5 ± 0.4 µM; in experiment [9] (Homo sapiens, SW-620), 2.5 ± 0.1 µM. In addition, the lymphocyte sequestration entry in experiment [3] is given as “no significant effect”. In addition, in experiment [5], the “activity in the prostate cancer cell proliferation assay (in words)” value is “as active as FTY720”.

With `CCCCCCCCc1ccc([C@@H]2CCN[C@H]2CO)cc1.Cl` [Compound 6], the 50% inhibitory concentration (IC50) in [1] is 5.9 ± 0.1 µM; in experiment [2], 8.4 ± 1.2 µM; in [4] (72 h), 3.7 ± 0.4 µM; in experiment [5] it was 3 ± 0.4 µM; in [6] it was 5 ± 0.9 µM; in experiment [7], 4.9 ± 0.6 µM. For the same molecule, the IC50 in experiment [8] came to 5.4 ± 0.6 µM; in experiment [9], 2.1 ± 0.2 µM. For the same molecule, in [5], the “activity in the prostate cancer cell proliferation assay (in words)” value is “as active as FTY720”.

Take `CCCCCCCCc1ccc(CCC(N)(CO)CO)cc1.Cl` [FTY720, 2-Amino-2-[2-(4-octylphenyl)ethyl]propane 1,3-diol hydrochloride, reference compound]: the concentration for half-maximal inhibition (IC50) in [1] (Homo sapiens, SUP-B15) came to 6.8 ± 0.7 µM; in experiment [2] (Homo sapiens, A549) it was 6 ± 0.4 µM; in experiment [4] (Homo sapiens, DU-145, 72 h) it was 3.1 ± 0.2 µM; in [5] (Homo sapiens) it was 2.6 ± 0.2 µM; in [6] (Homo sapiens, PANC-1) it was 4.6 ± 0.5 µM; in experiment [7] (Homo sapiens, MDA-MB-231), 4 ± 0.1 µM. The IC50 in [8] (Homo sapiens) amounted to 4.8 ± 0.1 µM; in [9] (Homo sapiens, SW-620) it was 2.8 ± 0.1 µM. Also, the lymphocyte sequestration result in experiment [3] is reported as “significantly sequestered lymphocytes”.
